Source: ChEMBL document CHEMBL3872214, “Synthesis and evaluation of in vivo antioxidant, in vitro antibacterial, MRSA and antifungal activity of novel substituted isatin N-(2,3,4,6-tetra-O-acetyl-β-d-glucopyranosyl)thiosemicarbazones” (Eur J Med Chem, 2016)
≈ marks a conversion by molar mass, not a printed value.

Tests used:
Format in all cases: functional
Staphylococcus aureus [1] = test: Antibacterial activity against methicillin-resistant Staphylococcus aureus 198-3 after 18 to 20 hrs by two-fold microbroth dilution method
Staphylococcus aureus [2] = test: Antibacterial activity against methicillin-resistant Staphylococcus aureus 198-2 after 18 to 20 hrs by two-fold microbroth dilution method
Staphylococcus aureus [3] = test: Antibacterial activity against Staphylococcus aureus ATCC 11632 after 18 to 20 hrs by two-fold microbroth dilution method
Staphylococcus aureus [4] = test: Antibacterial activity against methicillin-resistant Staphylococcus aureus 198-1 after 18 to 20 hrs by two-fold microbroth dilution method
Bacillus subtilis = test: Antibacterial activity against Bacillus subtilis ATCC 11774 after 18 to 20 hrs by two-fold microbroth dilution method
[5] = system: Staphylococcus epidermidis; test: Antibacterial activity against Staphylococcus epidermidis ATCC 12228 after 18 to 20 hrs by two-fold microbroth dilution method
Candida albicans = test: Antifungal activity against Candida albicans ATCC 7754 after 72 hrs by agar dilution method; settings: ATCC 7754, 72 h
Rattus norvegicus [6] = test: (§1) Antioxidant activity in CCL4-intoxicated Wistar albino rat assessed as liver cytosolic glutathione peroxidase activity per mg protein at 100 mg/kg, ip administered for 7 consecutive days after DL-alpha-tocopherol acetate treatment followed by CCL4 dosing measured after 24 hrs by H2O2 based spectrophotometric analysis (reference value: 0.28 +/- 0.01 U)
Escherichia coli = test: Antibacterial activity against Escherichia coli ATCC 25922 after 18 to 20 hrs by two-fold microbroth dilution method
Klebsiella aerogenes = test: Antibacterial activity against Enterobacter aerogenes ATCC 13048 after 18 to 20 hrs by two-fold microbroth dilution method
Rattus norvegicus [7] = test: as §1, with “superoxide dismutase” for “glutathione peroxidase”, “xanthine” for “H2O2”, “assay” for “spectrophotometric analysis”, “5.27” for “0.28”, “0.22” for “0.01”
Klebsiella pneumoniae = test: Antibacterial activity against Klebsiella pneumoniae ATCC 4352 after 18 to 20 hrs by two-fold microbroth dilution method
[8] = Antifungal activity against Saccharomyces cerevisiae SH20 after 72 hrs by agar dilution method
[9] = Antifungal activity against Fusarium oxysporum M42 after 72 hrs by agar dilution method
Aspergillus niger = test: Antifungal activity against Aspergillus niger 439 after 72 hrs by agar dilution method; settings: Aspergillus niger, 439, 72 h
Pseudomonas aeruginosa = test: Antibacterial activity against Pseudomonas aeruginosa […] after 18 to 20 hrs by two-fold microbroth dilution method
Rattus norvegicus [10] = test: as §1, with “catalase” for “glutathione peroxidase”, “assay” for “spectrophotometric analysis”, “220.15” for “0.28”, “11.43” for “0.01”

| SMILES | MIC (Staphylococcus aureus [1]) | MIC (Staphylococcus aureus [2]) | MIC (Staphylococcus aureus [3]) | MIC (Staphylococcus aureus [4]) | MIC (Bacillus subtilis) | MIC [5] | MIC (Candida albicans) | Activity (Rattus norvegicus [6]) | MIC (Escherichia coli) | MIC (Klebsiella aerogenes) | Activity (Rattus norvegicus [7]) | MIC (Klebsiella pneumoniae) | MIC [8] | MIC [9] | MIC (Aspergillus niger) | MIC (Pseudomonas aeruginosa) | Activity (Rattus norvegicus [10]) |
| --- | --- | --- | --- | --- | --- | --- | --- | --- | --- | --- | --- | --- | --- | --- | --- | --- | --- |
| CN[C@H](CC(C)C)C(=O)N[C@H]1C(=O)N[C@@H](CC(N)=O)C(=O)N[C@H]2C(=O)N[C@H]3C(=O)N[C@H](C(=O)N[C@H](C(=O)O)c4cc(O)cc(O)c4-c4cc3ccc4O)[C@H](O)c3ccc(c(Cl)c3)Oc3cc2cc(c3O[C@@H]2O[C@H](CO)[C@@H](O)[C@H](O)[C@H]2O[C@H]2C[C@](C)(N)[C@H](O)[C@H](C)O2)Oc2ccc(cc2Cl)[C@H]1O [VANCOMYCIN] | 1.65 µM (≈ 2.39 µg/mL) | 1.65 µM (≈ 2.39 µg/mL) | 1.21 µM (≈ 1.75 µg/mL) | 1.65 µM (≈ 2.39 µg/mL) | 0.83 µM (≈ 1.2 µg/mL) | 2.1 µM (≈ 3.04 µg/mL) | – | – | – | – | – | – | – | – | – | – | – |
| C=CCN1C(=O)/C(=N/NC(=S)N[C@@H]2O[C@H](COC(C)=O)[C@@H](OC(C)=O)[C@H](OC(C)=O)[C@H]2OC(C)=O)c2ccccc21 | 200 µM (≈ 118 µg/mL) | 200 µM (≈ 118 µg/mL) | 200 µM (≈ 118 µg/mL) | 200 µM (≈ 118 µg/mL) | 200 µM (≈ 118 µg/mL) | 200 µM (≈ 118 µg/mL) | 100 µM (≈ 59.1 µg/mL) | 0.27 U | 100 µM (≈ 59.1 µg/mL) | 100 µM (≈ 59.1 µg/mL) | 9.91 U | 100 µM (≈ 59.1 µg/mL) | 100 µM (≈ 59.1 µg/mL) | 200 µM (≈ 118 µg/mL) | 200 µM (≈ 118 µg/mL) | 100 µM (≈ 59.1 µg/mL) | 357.47 U |
| CC(=O)OC[C@H]1O[C@@H](NC(=S)N/N=C2/C(=O)N(CC(C)C)c3ccccc32)[C@H](OC(C)=O)[C@@H](OC(C)=O)[C@@H]1OC(C)=O | 100 µM (≈ 60.7 µg/mL) | 100 µM (≈ 60.7 µg/mL) | 100 µM (≈ 60.7 µg/mL) | 100 µM (≈ 60.7 µg/mL) | 100 µM (≈ 60.7 µg/mL) | 100 µM (≈ 60.7 µg/mL) | 100 µM (≈ 60.7 µg/mL) | 0.91 U | 12.5 µM (≈ 7.58 µg/mL) | 12.5 µM (≈ 7.58 µg/mL) | 9.88 U | 12.5 µM (≈ 7.58 µg/mL) | 100 µM (≈ 60.7 µg/mL) | 100 µM (≈ 60.7 µg/mL) | 100 µM (≈ 60.7 µg/mL) | 12.5 µM (≈ 7.58 µg/mL) | 375.45 U |
| CC(=O)OC[C@H]1O[C@@H](NC(=S)N/N=C2/C(=O)Nc3ccc(I)cc32)[C@H](OC(C)=O)[C@@H](OC(C)=O)[C@@H]1OC(C)=O | 6.25 µM (≈ 4.23 µg/mL) | 6.25 µM (≈ 4.23 µg/mL) | 6.25 µM (≈ 4.23 µg/mL) | 6.25 µM (≈ 4.23 µg/mL) | 6.25 µM (≈ 4.23 µg/mL) | 6.25 µM (≈ 4.23 µg/mL) | 6.25 µM (≈ 4.23 µg/mL) | 0.35 U | 50 µM (≈ 33.8 µg/mL) | 50 µM (≈ 33.8 µg/mL) | 10.85 U | 25 µM (≈ 16.9 µg/mL) | 6.25 µM (≈ 4.23 µg/mL) | 12.5 µM (≈ 8.46 µg/mL) | 6.25 µM (≈ 4.23 µg/mL) | 25 µM (≈ 16.9 µg/mL) | 399.75 U |
| CC(=O)OC[C@H]1O[C@@H](NC(=S)N/N=C2/C(=O)Nc3c2cc(Cl)cc3[N+](=O)[O-])[C@H](OC(C)=O)[C@@H](OC(C)=O)[C@@H]1OC(C)=O | 6.25 µM (≈ 3.94 µg/mL) | 6.25 µM (≈ 3.94 µg/mL) | 6.25 µM (≈ 3.94 µg/mL) | 6.25 µM (≈ 3.94 µg/mL) | 3.12 µM (≈ 1.97 µg/mL) | 6.25 µM (≈ 3.94 µg/mL) | 6.25 µM (≈ 3.94 µg/mL) | 0.35 U | 25 µM (≈ 15.7 µg/mL) | 25 µM (≈ 15.7 µg/mL) | 10.57 U | 25 µM (≈ 15.7 µg/mL) | 25 µM (≈ 15.7 µg/mL) | 25 µM (≈ 15.7 µg/mL) | 12.5 µM (≈ 7.87 µg/mL) | 25 µM (≈ 15.7 µg/mL) | 389.53 U |
| CC(=O)OC[C@H]1O[C@@H](NC(=S)N/N=C2/C(=O)Nc3ccc(Br)cc32)[C@H](OC(C)=O)[C@@H](OC(C)=O)[C@@H]1OC(C)=O | 3.12 µM (≈ 1.96 µg/mL) | 1.56 µM (≈ 0.982 µg/mL) | 6.25 µM (≈ 3.93 µg/mL) | 1.56 µM (≈ 0.982 µg/mL) | 6.25 µM (≈ 3.93 µg/mL) | 6.25 µM (≈ 3.93 µg/mL) | 12.5 µM (≈ 7.87 µg/mL) | 0.32 U | 50 µM (≈ 31.5 µg/mL) | 50 µM (≈ 31.5 µg/mL) | 10.47 U | 50 µM (≈ 31.5 µg/mL) | 12.5 µM (≈ 7.87 µg/mL) | 12.5 µM (≈ 7.87 µg/mL) | 6.25 µM (≈ 3.93 µg/mL) | 50 µM (≈ 31.5 µg/mL) | 394.43 U |
| Oc1ccc(/C=C/c2cc(O)cc(O)c2)cc1 [RESVERATROL] | – | – | – | – | – | – | – | 0.33 U | – | – | 7.31 U | – | – | – | – | – | 282.12 U |
| CCN1C(=O)/C(=N/NC(=S)N[C@@H]2O[C@H](COC(C)=O)[C@@H](OC(C)=O)[C@H](OC(C)=O)[C@H]2OC(C)=O)c2ccccc21 | 100 µM (≈ 57.9 µg/mL) | 100 µM (≈ 57.9 µg/mL) | 100 µM (≈ 57.9 µg/mL) | 100 µM (≈ 57.9 µg/mL) | 100 µM (≈ 57.9 µg/mL) | 100 µM (≈ 57.9 µg/mL) | 400 µM (≈ 231 µg/mL) | 0.75 U | 12.5 µM (≈ 7.23 µg/mL) | 12.5 µM (≈ 7.23 µg/mL) | 9.68 U | 12.5 µM (≈ 7.23 µg/mL) | 400 µM (≈ 231 µg/mL) | 200 µM (≈ 116 µg/mL) | 25 µM (≈ 14.5 µg/mL) | 12.5 µM (≈ 7.23 µg/mL) | 358.47 U |
